SMILES strings stand for the structures.

One experiment addresses T1, COX-2 (Homo sapiens, UniProt P35354).
T1 sequence (P35354 18-604): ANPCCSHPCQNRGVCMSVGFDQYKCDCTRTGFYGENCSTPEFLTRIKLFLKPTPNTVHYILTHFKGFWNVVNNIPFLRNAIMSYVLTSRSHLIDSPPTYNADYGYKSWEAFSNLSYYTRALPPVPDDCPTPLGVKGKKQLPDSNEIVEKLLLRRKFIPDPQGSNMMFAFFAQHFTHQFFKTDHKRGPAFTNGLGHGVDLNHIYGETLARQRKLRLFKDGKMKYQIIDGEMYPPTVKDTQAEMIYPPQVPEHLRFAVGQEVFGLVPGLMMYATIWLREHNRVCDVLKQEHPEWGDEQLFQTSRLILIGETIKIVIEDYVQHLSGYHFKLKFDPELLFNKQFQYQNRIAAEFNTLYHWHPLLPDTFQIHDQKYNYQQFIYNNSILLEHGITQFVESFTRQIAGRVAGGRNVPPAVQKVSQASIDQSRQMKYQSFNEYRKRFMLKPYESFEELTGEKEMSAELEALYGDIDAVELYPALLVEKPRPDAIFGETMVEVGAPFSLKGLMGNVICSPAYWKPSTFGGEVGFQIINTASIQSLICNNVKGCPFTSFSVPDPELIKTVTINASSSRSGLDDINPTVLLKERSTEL
Nature of the experiment: Cell-based COX-2 inhibition (canine, feline or human assays). The following applies: from IC50 COX-1 vs COX-2. As for the experimental part: The human cell based COX-2 assay can be carried out as previously described (Moore et al., Inflam. Res., 45, 54, 1996). Confluent human umbilical vein endothelial cells (HUVECs, Morinaga) in a 96-well flat bottom plate can be washed with 80 ml of RPMI1640 containing 2% FBS and incubated with hIL-1β (final concentration 300 U/ml, R & D Systems) at 37° C. for 24 hours. After washing, the activated HUVECs can be incubateed with test compound (final concentration; 0.1 nM-1 μM) dissolved in DMSO (final concentration; less than 0.01%) at 37° C. for 20 minutes and stimulated with A23187 (final concentration […]) in Hanks buffer containing 0.2% BSA, 20 mM Hepes at 37° C. for 15 minutes. 6-Keto-PGF1α, stable metabolite of PGI2, in the supernatant can be quantitated by using a radioimmunoassay method (antibody; Preseptive Diagnostics, SPA; Amersham).
A canine histocytoma (macrophage-like) cell line from the American Type Culture Collection designated as DH82, can be used in setting up the protocol for evaluating the COX-2 inhibition activity of various test drug compounds. […] The EIA can be performed for prostaglandin E2 (PGE2) and the pg/mL concentration of PGE2 can be calculated from the standard line included on each plate. […] The results are averaged and a single COX-1:COX-2 ratio is calculated. […]

For a further experiment, the target named is T2, COX-1 (Homo sapiens, UniProt P23219).
T2 construct: endogenous in cells; host or cells: one of: human washed platelets, canine washed platelets, or feline/canine/human whole blood
In words: Cell-based COX-1 inhibition. The following applies: assay/species not specified. The method, then: Human peripheral blood obtained from healthy volunteers can be diluted to 1/10 volume with 3.8% sodium citrate solution. The platelet-rich plasma immediately obtained can be washed with 0.14 M sodium chloride containing 12 mM Tris-HCl (pH 7.4) and 1.2 mM EDTA. Platelets can then be washed with platelet buffer (Hanks buffer (Ca free) containing 0.2% BSA and 20 mM Hepes). Finally, the human washed platelets (HWP) can be suspended in platelet buffer at the concentration of 2.85×10^8 cells/ml and stored at room temperature until use. The HWP suspension (70 μl aliquots, final 2.0×10^7 cells/ml) can be placed in a 96-well U bottom plate and 10 μl aliquots of 12.6 mM calcium chloride added. […] The reaction can be stopped by addition of EDTA (final 7.7 mM) and TxB2 in the supernatant quantitated by using a radioimmunoassay kit (Amersham) according to the manufacturer's procedure.
Test drug compounds can be solubilized and diluted the day before the assay can be to be conducted with 0.1 mL of DMSO/9.9 mL of Hank's balanced salts solution (HBSS) and stored overnight at 4° C. […] The pg/mL of TXB2 can be calculated from the standard line included on each plate, from which it can be possible to calculate the percent inhibition of COX-1 and the IC50 values for the test drug compounds. […]
COX-2 selectivity can be determined by ratio in terms of IC50 value of COX-1 inhibition to COX-2 inhibition. […]

T2 sequence (P23219 24-599): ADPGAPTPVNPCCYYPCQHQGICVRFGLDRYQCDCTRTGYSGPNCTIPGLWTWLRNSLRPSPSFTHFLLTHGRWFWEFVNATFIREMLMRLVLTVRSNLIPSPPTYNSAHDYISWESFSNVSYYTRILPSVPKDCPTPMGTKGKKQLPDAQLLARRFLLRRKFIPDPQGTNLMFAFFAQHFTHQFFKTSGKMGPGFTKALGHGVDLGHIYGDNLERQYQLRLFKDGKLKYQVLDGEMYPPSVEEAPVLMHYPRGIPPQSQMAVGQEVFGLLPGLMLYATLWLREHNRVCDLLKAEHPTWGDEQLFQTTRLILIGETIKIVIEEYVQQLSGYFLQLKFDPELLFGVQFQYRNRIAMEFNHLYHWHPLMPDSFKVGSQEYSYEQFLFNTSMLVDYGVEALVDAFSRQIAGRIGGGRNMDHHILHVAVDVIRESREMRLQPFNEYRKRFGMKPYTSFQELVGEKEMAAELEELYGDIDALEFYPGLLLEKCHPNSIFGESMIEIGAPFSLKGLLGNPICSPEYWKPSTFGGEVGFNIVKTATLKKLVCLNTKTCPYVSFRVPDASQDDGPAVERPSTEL

`Cc1cc(C)cc(NC(=O)N2C(=O)C(C(=O)c3cnccn3)c3cc(C)c(F)cc32)c1` (centres unmarked) [6-Fluoro-5-methyl-2-oxo-3-(pyrazine-2-carbonyl)-2,3-dihydro-indole-1-carboxylic acid (3,5-dimethyl-phenyl)-amide]: the “selectivity for COX-2 (COX-1/COX-2 IC50)” value on COX-2 is given as “no selectivity for COX-2”. For the same compound, the IC50 – broadly, the concentration that inhibits the measured activity by half – against COX-1 was greater than 150 µM.
